In the NIST ThermoML archive (doi:10.1016/j.jct.2010.08.004):
± gives the expanded uncertainty stated by the source.

Experiment: mn = molality of the nth substance listed, in mol/kg
Conditions: 101 kPa, Liquid, Vibrating tube method

NCC(=O)O [2-aminoacetic acid] + O
mass density [kg/m3]
Conditions	m1 = 0.05482	m1 = 0.1106	m1 = 0.1792	m1 = 0.2044	m1 = 0.2754	m1 = 0.2966
293.15 K	999.976 ± 0.034	1001.75 ± 0.035	1003.91 ± 0.036	1004.69 ± 0.036	1006.9 ± 0.038	1007.58 ± 0.038
298.15 K	998.789 ± 0.034	1000.54 ± 0.034	1002.68 ± 0.036	1003.46 ± 0.036	1005.64 ± 0.037	1006.28 ± 0.038
303.15 K	997.364 ± 0.035	999.102 ± 0.035	1001.22 ± 0.035	1002 ± 0.036	1004.17 ± 0.037	1004.81 ± 0.037
308.15 K	–	997.455 ± 0.035	999.562 ± 0.035	1000.33 ± 0.035	1002.5 ± 0.036	1003.13 ± 0.037

CC(C)C[C@H](N)C(=O)O [L-leucine] + O
mass density [kg/m3]
Conditions	m1 = 0.03401	m1 = 0.03488	m1 = 0.05007	m1 = 0.08154	m1 = 0.119	m1 = 0.1427
293.15 K	999.039 ± 0.034	999.061 ± 0.034	999.427 ± 0.034	1000.18 ± 0.034	1001.08 ± 0.034	1001.64 ± 0.035
298.15 K	997.855 ± 0.035	997.877 ± 0.034	998.236 ± 0.034	998.978 ± 0.034	999.854 ± 0.034	1000.41 ± 0.034
303.15 K	996.441 ± 0.035	996.462 ± 0.035	996.817 ± 0.035	997.55 ± 0.035	998.417 ± 0.035	998.966 ± 0.035
308.15 K	994.81 ± 0.036	994.83 ± 0.036	995.182 ± 0.036	995.908 ± 0.036	996.767 ± 0.035	997.31 ± 0.035

CC(C)[C@H](N)C(=O)O [L-valine] + O
mass density [kg/m3]
Conditions	m1 = 0.04524	m1 = 0.09973	m1 = 0.152	m1 = 0.1964	m1 = 0.2542	m1 = 0.2955
293.15 K	999.424 ± 0.034	1000.87 ± 0.034	1002.24 ± 0.035	1003.4 ± 0.035	1004.9 ± 0.036	1006.01 ± 0.037
298.15 K	998.244 ± 0.034	999.672 ± 0.034	1001.03 ± 0.034	1002.18 ± 0.035	1003.67 ± 0.036	1004.72 ± 0.037
303.15 K	996.827 ± 0.035	998.242 ± 0.035	999.59 ± 0.034	1000.73 ± 0.035	1002.2 ± 0.036	1003.25 ± 0.036
308.15 K	995.195 ± 0.036	996.6 ± 0.035	997.939 ± 0.035	999.067 ± 0.035	1000.53 ± 0.035	1001.56 ± 0.036
